# “Also recorded” adds a separate entry of the source.
# Columns and labels:
# [1] = tested on: TH-expressing cells (dopaminergic neurons) differentiated from hNPCs; assay: Neuroprotective effect: differentiation induced in the presence of MPP (FIG. 6); format: cell-based, human
# Text: It is known that 1-methyl-4-phenylpyridium (MPP) induces cytotoxicity on dopaminergic neurons. Therefore, we evaluated functions of fusaric acid during the differentiation, through inducing differentiation in the presence of MPP (FIG. 6).
# [2] = tested on: human neural progenitor cells (hNPCs); assay: Differentiation of hNPCs in NB medium with or without 100 μM fusaric acid; TH and Tuj1 expression, immunocytochemistry and RT-PCR (FIGS. 2, 3); format: cell-based; conditions: 100 μM fusaric acid added to NB medium with 2% B-27 minus-AO, 10 μM forskolin, 1 mM db-cAMP, versus without
# Protocol: Total cellular RNAs were extracted from the hNPC, using Trizol and chloroform. cDNAs were synthesized from 500 ng of the total RNAs, using RNA Superscript II RTase, Oligo-d(T) primers, DTT and dNTPs, according to the manufacturer's protocol. The PCR was performed in a final volume of 20 μl containing 1 μl of cDNA and 1 μl of 10 pM primers, using a SYBR-Green mixture. The expressions of TH, DAT, GFAP, Nurr1, Tuj1, and Lmx1a were analyzed, using RPL22 as an internal control. The quantitative real-time PCR was performed using the LightCycler System. The amplification was monitored and analyzed through measuring the binding of the fluorescent dye SYBR Green to double-stranded DNA. The target DNAs were amplified by performing total 40 cycles, under the conditions at 95° C. for 10 seconds, at 60° C. for 10 seconds, at 72° C. for 20 seconds. Final extension was performed at 72° C. for 10 minutes. Results were expressed relative to the gene RPL-22 by comparative Ct method. The primers used in the PCR are described in Table 1. […]
# hNPCs were proliferated in a DMEM/F12 (1:1) Glutamax medium, and then differentiated to neurons in a Neurobasal (NB) medium containing 2% of B-27 minus-AO supplement (GIBCO), 10 μM of forskolin, and 1 mM of db-cAMP, along with or without 100 μM of fusaric acid. After induction of the differentiation, the expression levels of TH and Tuj1 were measured (FIG. 2).
# [3] = tested on: human neural progenitor cells (hNPCs); assay: Differentiation of hNPCs under hypoxia or normoxia; TH expression (FIG. 5); format: cell-based; conditions: NB medium with 2% B-27, 10 μM forskolin, 100 μM fusaric acid, 100 μM db-cAMP; 3% versus 21% oxygen partial pressure
# Protocol: hNPCs were proliferated in a DMEM/F12 (1:1) Glutamax medium, and then differentiated in a Neurobasal (NB) medium (Invitrogen) containing 2% of B-27, 10 μM of forskolin, 100 μM of fusaric acid, and 100 μM of db-cAMP, under the hypoxia condition (3% of oxygen partial pressure) or the normoxia condition (21% of oxygen partial pressure). After induction of the differentiation, the expression levels of TH were measured (FIG. 5).
# [4] = tested on: human neural progenitor cells (hNPCs); assay: Differentiation of hNPCs into dopaminergic neurons in media with various additives; TH and Tuj1 counted with DAPI staining (FIG. 1); format: cell-based
# Protocol: For dopaminergic differentiation, hNPCs were plated onto a culture dish pre-coated with 15 μg/ml of poly-L-ornithine and 4 μg/ml of fibronectin at a density of 30,000 cells/cm^2; and after 2 or 3 days the cells were cultured in a NB medium comprising differentiation-inducing agents such as 2% of B27 minus-AO supplement (GIBCO), 10 μM of forskolin, 1 mM of db-cAMP and […] of fusaric acid, at 37° C. for 7 days, unless otherwise described.
# hNPCs were washed with PBS three times and then fixed with 4% paraformaldehyde in PBS for 10 minutes. The cells were washed with PBS three times and then blocked by reacting with 3% Normal goat serum, 0.2% Triton X-100 and 1% BSA in PBS at room temperature for 1 hour. […]
# hNPCs were differentiated into dopaminergic neurons in media obtained by adding interleukin 1 beta, db-cAMP, and fusaric acid (Fus), in various concentrations and combinations, to a Neurobasal medium [differentiation medium (DM) control]. TH (a dopaminergic neuron marker) and Tuj1 (a neural marker) were measured through the DAPI staining (FIG. 1).
# [5] = tested on: human neural progenitor cells (hNPCs); assay: Substitution potential for SHH and FGF8 as differentiation-inducing agents; TH expression (FIG. 4); format: cell-based
# Protocol: In order to evaluate substitution potential for the expensive SHH and FGF8 that are of limited use as a differentiation-inducing agent, hNPCs were proliferated in a DMEM/F12 (1:1) Glutamax medium. After induction of the differentiation in a Neurobasal (NB) medium (Invitrogen) using 2% of B-27, 200 ng/ml of SHH, 25 ng/ml of FGF8, 10 μM of forskolin, 100 μM of fusaric acid, and 100 μM of db-cAMP, the expression levels of TH were measured (FIG. 4).
# [6] = differentiation in medium containing fusaric acid, in the presence of MPP
structure (smiles),measurement,setting,value
"CCCCc1ccc(C(=O)O)nc1 [fusaric acid, 5-butylpicolinic acid]",neuroprotective activity,"[1]; conclusion from FIG. 6, MPP treatment",has neuroprotective activity
same,expression of Tuj1 under MPP treatment,[1]; [6],relatively more expressed
same,survival of TH-expressing cells under MPP treatment,[1]; [6],more TH-expressing cells survived
same,expression of TH (dopaminergic neuron marker),[2],remarkably high expressed
same,expression of Tuj1 (neuronal marker),[2],also increased
same,"differentiation into dopaminergic neurons (TH expression), hypoxia versus normoxia",[3],differentiated more efficiently into dopaminergic neurons in hypoxia than in normoxia
same,expression levels of TH and Tuj1 (differentiation potential),"[4]; culture medium containing db-cAMP and fusaric acid, compared with other combinations (interleukin 1 beta, db-cAMP, fusaric acid) in Neurobasal medium",highest expression levels of TH and Tuj1
same,differentiation potential by concentration,[4]; db-cAMP and fusaric acid each at 100 μM,the highest differentiation potential was obtained
same,differentiation into dopaminergic neurons (TH expression),[5]; 100 μM fusaric acid added in addition to 200 ng/ml SHH and 25 ng/ml FGF8,more increased
same,differentiation into dopaminergic neurons (TH expression),"[5]; 100 μM fusaric acid instead of SHH and FGF8, NB medium, 2% B-27, 10 μM forskolin, 100 μM db-cAMP",higher differentiation potential into dopaminergic neurons; also recorded: differentiated most effectively into dopaminergic neurons
